The results in this text go back to patent US20250034135A1, “ANTI-APOPTOTIC PROTEIN BCL-2 INHIBITOR, PHARMACEUTICAL COMPOSITION AND USES THEREOF” (HANGZHOU HEALZEN THERAPEUTICS CO., LTD., priority 2021, published 2025).

Where two headings read alike, the source gives them in different places. A value given as a limit tells only on which side of the number the result lay.

One experiment addresses BCL-XL (Homo sapiens (Human), UniProt Q07817). Kind of experiment: BCL-XL enzyme molecular level activity test (HTRF, binding to BIM peptide). The conditions noted are these: binding of BCL-XL to BIM peptide, read-out: BCL-XL inhibitory activity (IC50). The method, boiled down:
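HTRF binding assay: His-tagged recombinant BCL-XL with biotin-BIM peptide and compound (2% DMSO), 1 h. Anti-His and streptavidin-XL665 detection reagents added, 4 h at room temperature. Excitation 320 nm; 665/615 nm ratio reflects binding, with no-protein background and no-compound full-binding controls.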
A general note: TR-FRET usually uses a lanthanide donor and a delayed reading to cut background.

The subject of the next experiment is RS4; 11 cells. Kind of experiment: Tumor proliferation inhibitory activity test (MTS) on RS4; 11. It is filed as cell-based. The conditions noted are these: Homo sapiens, RS4-11, 72 h, 3 days incubation. As to the method:
The cell proliferation inhibitory ability of the compounds on RS4; 11 was tested using the MTS method. MTS is a tetrazolium blue salt compound that can be reduced by various dehydrogenases in live cell mitochondria to their respective colored methylzan products. Its color depth is highly correlated with the number of live cells in certain sensitive cell lines within a certain range. RS4; 11, RS4; 11 (BCL-2-G101V) and MOLT-4 tumor cells were cultivated separately and collected, 180 μL of cell suspension was added to each well in a 96-well cell plate, 20 μL of DMSO with a final concentration of 0.2% was added to the control cell wells, 20 μL of gradient diluted compounds were added to cell wells, and the treated cells were incubated in a 5% CO2 incubator at 37° C. for 3 days. After the incubation was completed, the reaction solution was prepared according to the MTS reagent kit, 20 μL was added per well and incubated in a 5% CO2 incubator at 37° C. for 3-4 hours. The absorbance value at 490 nm was read using an enzyme-linked immunosorbent assay (ELISA) plate, and the absorbance value at 690 nm was used as the background value, with OD490 nm-OD690 nm as the final raw data. The formula for calculating the inhibition ratio of compounds was as follows: inhibition ratio=(ODDMSO−ODCompound)/(ODDMSO−ODblank)×100%.

The next experiment has as its target BCL2 (G101V) (Homo sapiens (Human), UniProt P10415, G101V). Kind of experiment: Molecular level activity test of anti-apoptotic protein BCL2 (G101V) (HTRF, binding to Bim peptide). The conditions noted are these: inhibition of BCL2 (G101V) binding to Bim peptide, read-out: BCL-2 (G101V). As to the method: (§1) The detection of the binding ability between anti-apoptotic protein BCL2 (G101V) and pro-apoptotic protein Bim was performed using Homogeneous Time-Resolved Fluorescence technology. The reaction of this method occurred in a white shallow 384-well plate, with a total reaction volume of 10 μL. Specifically, it included 2 μL of the compound to be tested (2% DMSO), 4 μL His-tagged recombinant protein, and 4 μL Biotin-tagged BIM protein peptide. After 1 hour of reaction, 5 L of each Anti-His and streptavidin-tagged XL665 antibody diluents diluted with a detection buffer were added. After incubating at room temperature for 4 hours, the values were read using the Envision multifunctional microplate reader to detect the effect of the compound to be tested on the binding ability of BCL2 (G101V) to BIM protein peptides.

The next experiment addresses BCL2 (D103Y) (Homo sapiens (Human), UniProt P10415, D103Y). Kind of experiment: Molecular level activity test of BCL2 (D103Y) (HTRF, binding to Bim peptide). The conditions noted are these: read-out: BCL-2 (D103Y) (nM) (inhibitory activity, IC50). Here is the method: as §1, with “BCL2 (D103Y)” for “BCL2 (G101V)”, “5 μL” for “5 L”
For another experiment, the target named is BCL2 (Homo sapiens (Human), UniProt P10415). Kind of experiment: Molecular level activity test of anti-apoptotic protein BCL2 (HTRF, binding to Bim peptide). The conditions noted are these: HTRF, binding of BCL2 to Bim peptide; read-out: BCL2 nM (inhibitory activity, IC50). The method, boiled down:
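Step one: compound, supplied in 2% DMSO, is mixed with His-tagged BCL2 and biotinylated Bim peptide and reacted for 1 h. Step two: anti-His and streptavidin-XL665 reagents in detection buffer are added. Step three: after a 4 h room-temperature incubation, time-resolved fluorescence is measured.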

Sequence of BCL-XL (Q07817 whole entry): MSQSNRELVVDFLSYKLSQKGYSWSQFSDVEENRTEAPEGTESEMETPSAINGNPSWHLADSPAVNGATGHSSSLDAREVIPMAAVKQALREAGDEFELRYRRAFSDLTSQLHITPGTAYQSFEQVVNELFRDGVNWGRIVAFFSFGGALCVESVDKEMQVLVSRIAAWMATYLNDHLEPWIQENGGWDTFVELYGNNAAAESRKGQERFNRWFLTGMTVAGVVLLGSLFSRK

Regarding `CC(C)c1ccccc1[C@@H]1CN(Cc2ccc(CN3CCCC3)cc2)CCN1C1CC2(CCN(c3cc(Oc4cnc5[nH]ccc5c4)c(C(=O)NS(=O)(=O)c4ccc(NCC5(F)CCOCC5)c([N+](=O)[O-])c4)cc3F)CC2)C1` [compound 245, (R)-2-((1H-pyrrolo[2,3-b]pyrid-5-yl)oxy)-5-fluoro-N-((4-(((4-fluorotetrahydro-2H-pyran-4-yl)methyl)amino)-3-nitrophenyl)sulfonyl)-4-(2-(2-(2-isopropylphenyl)-4-(4-(pyrrolidin-1-ylmethyl)benzyl)piperazin-1-yl)-7-azaspiro[3.5]non-7-yl)benzamide], the IC50 at BCL-XL (values in nM) is more than 500 nM; in the experiment with RS4; 11 cells it was 0.5 to 1 nM; on BCL2 (G101V), less than 10 nM; on BCL2 (D103Y) it was less than 10 nM; on BCL2, less than 10 nM.
`COc1ccc(CN2CCN(C3CC4(CCN(c5cc(Oc6cnc7[nH]ccc7c6)c(C(=O)NS(=O)(=O)c6ccc(NCC7(F)CCOCC7)c([N+](=O)[O-])c6)cc5F)CC4)C3)[C@H](c3ccccc3C(C)C)C2)cc1CN1CCCC1` [compound 251, (R)-2-((1H-pyrrolo[2,3-b]pyrid-5-yl)oxy)-5-fluoro-N-((4-(((4-fluorotetrahydro-2H-pyran-4-yl)methyl)amino)-3-nitrophenyl)sulfonyl)-4-(2-(2-(2-isopropylphenyl)-4-(4-methoxy-3-(pyrrolidin-1-ylmethyl)benzyl)piperazin-1-yl)-7-azaspiro[3.5]non-7-yl)benzamide]: the IC50 at BCL-XL (values in nM) is more than 500 nM; with RS4; 11 cells, 0.5 to 1 nM; at BCL2 (G101V), less than 10 nM; on BCL2 (D103Y), less than 10 nM; at BCL2 it was less than 10 nM.
`COc1ccc(CN2CCN(C3CC4(CCN(c5ccc(C(=O)NS(=O)(=O)c6cc([N+](=O)[O-])c(NCC7CCOCC7)c7c6OCCO7)c(Oc6cnc7[nH]ccc7c6)c5)CC4)C3)[C@H](c3ccccc3C(C)C)C2)cc1` [compound 146, (R)-2-((1H-pyrrolo[2,3-b]pyrid-5-yl)oxy)-4-(2-(2-(2-isopropylphenyl)-4-(4-methoxybenzyl)piperazin-1-yl)-7-azaspiro[3.5]non-7-yl)-N-((7-nitro-8-(((tetrahydro-2H-pyran-4-yl)methyl)amino)-2,3-dihydrobenzo[b][1,4]dioxan-5-yl)sulfonyl)benzamide]: the IC50 on BCL-XL (values given in μM) was 2700 nM; with RS4; 11 cells, 0.5 to 1 nM; at BCL2 (G101V), less than 10 nM; at BCL2 (D103Y) it was less than 10 nM; at BCL2, less than 10 nM.
With `COc1ccc(CN2CCN(C3CC4(CCN(c5cc(Oc6cnc7[nH]cc(F)c7c6)c(C(=O)NS(=O)(=O)c6ccc(NCC7CCOCC7)c([N+](=O)[O-])c6)cc5F)CC4)C3)[C@H](c3ccccc3C(C)C)C2)cc1` [compound 240, (R)-5-fluoro-2-((3-fluoro-1H-pyrrolo[2,3-b]pyrid-5-yl)oxy)-4-(2-(2-(2-isopropylphenyl)-4-(4-methoxybenzyl)piperazin-1-yl)-7-azaspiro[3.5]non-7-yl)-N-((3-nitro-4-(((tetrahydro-2H-pyran-4-yl)methyl)amino)phenyl)sulfonyl)benzamide], the IC50 on BCL-XL (values in nM) was more than 500 nM; with RS4; 11 cells it was 0.5 to 1 nM; on BCL2 (G101V) it was less than 10 nM; at BCL2 (D103Y) it was less than 10 nM; on BCL2, less than 10 nM.
`COc1ccc(CN2CCN(C3CC4(CCN(c5cc(Oc6cnc7[nH]ccc7c6)c(C(=O)NS(=O)(=O)c6cc([N+](=O)[O-])c(NCC7CCOCC7)c7[nH]cnc67)cn5)CC4)C3)[C@H](c3ccccc3C(C)C)C2)cc1` [compound 267, (R)-4-((1H-pyrrolo[2,3-b]pyrid-5-yl)oxy)-6-(2-(2-(2-isopropylphenyl)-4-(4-methoxybenzyl)piperazin-1-yl)-7-azaspiro[3.5]non-7-yl)-N-((6-nitro-7-(((tetrahydro-2H-pyran-4-yl)methyl)amino)-1H benzo[d]imidazol-4-yl)sulfonyl) nicotinamide]: the IC50 on BCL-XL (values in nM) is more than 500 nM; in the experiment with RS4; 11 cells, 0.5 to 1 nM; at BCL2 (G101V), less than 10 nM; at BCL2 (D103Y), less than 10 nM; on BCL2 it was less than 10 nM.
For the compound `COc1ccc(CN2CCN(C3CC4(CCN(c5ccc(C(=O)NS(=O)(=O)c6cc([N+](=O)[O-])c(NCC7CCOCC7)c7[nH]cnc67)c(Oc6cnc7[nH]ccc7c6)c5)CC4)C3)[C@H](c3ccccc3C(C)C)C2)cc1` [compound 260], the IC50 on BCL-XL (values in nM) is more than 500 nM; in the experiment with RS4; 11 cells, less than 0.5 nM; at BCL2 (G101V), less than 10 nM; at BCL2 (D103Y), less than 10 nM; on BCL2 it was less than 10 nM.
Turning to `COc1ccc(CN2CCN(C3CC4(CCN(c5ccc(C(=O)NS(=O)(=O)c6cc([N+](=O)[O-])c(NCC7CCOCC7)c7c6OCO7)c(Oc6cnc7[nH]ccc7c6)c5)CC4)C3)[C@H](c3ccccc3C(C)C)C2)cc1` [compound 145, (R)-2-((1H-pyrrolo[2,3-b]pyrid-5-yl)oxy)-4-(2-(2-(2-isopropylphenyl)-4-(4-methoxybenzyl)piperazin-1-yl)-7-azaspiro[3.5]non-7-yl)-N-((6-nitro-7-(((tetrahydro-2H-pyran-4-yl)methyl)amino)benzo[d][1,3]dioxocyclopent-4-yl)sulfonyl)benzamide], the IC50 was more than 1000 nM on BCL-XL (values given in μM); less than 0.5 nM in the experiment with RS4; 11 cells; less than 10 nM on BCL2 (G101V); less than 10 nM at BCL2 (D103Y); less than 10 nM on BCL2.
As to `COc1ccc(CN2CCN(C3CC4(CCN(c5cc(Oc6cnc7[nH]ccc7c6)c(C(=O)NS(=O)(=O)c6cc([N+](=O)[O-])c(NCC7CCOCC7)c7c6OCCO7)cc5F)CC4)C3)[C@H](c3ccccc3C(C)C)C2)cc1` [compound 265, (R)-2-((1H-pyrrolo[2,3-b]pyrid-5-yl)oxy)-5-fluoro-4-(2-(2-(2-isopropylphenyl)-4-(4-methoxybenzyl)piperazin-1-yl)-7-azaspiro[3.5]non-7-yl)-N-((7-nitro-8-(((tetrahydro-2H-pyran-4-yl)methyl)amino)-2,3-dihydrobenzo[b][1,4]dioxin-5-yl)sulfonyl)benzamide], the IC50 is more than 20000 nM on BCL-XL (values given in μM); 0.5 to 1 nM in the experiment with RS4; 11 cells; less than 10 nM on BCL2 (G101V); less than 10 nM at BCL2 (D103Y); less than 10 nM at BCL2.
For the compound `COc1ccc(CN2CCN(C3CC4(CCN(c5cc(Oc6cnc7[nH]ccc7c6)c(C(=O)NS(=O)(=O)c6ccc(NC[C@H]7CC[C@](C)(O)CC7)c([N+](=O)[O-])c6)cc5F)CC4)C3)[C@H](c3ccccc3C(C)C)C2)cc1OC` [compound 237, 2-((1H-pyrrolo[2,3-b]pyrid-5-yl)oxy)-4-(2-((R)-4-(3,4-dimethoxybenzyl)-2-(2-isopropylphenyl)piperazin-1-yl)-7-azaspiro[3.5]non-7-yl)-5-fluoro-N-((4-((((1r, 4r)-4-hydroxy-4-methylcyclohexyl)methyl)amino)-3-nitrophenyl)sulfonyl)benzamide], the IC50 was more than 500 nM at BCL-XL (values in nM); 0.5 to 1 nM with RS4; 11 cells; less than 10 nM on BCL2 (G101V); less than 10 nM at BCL2 (D103Y); less than 10 nM at BCL2.
